Measurements taken from EP4711356A1, “TETRAHYDROCARBAZOLE DERIVATIVE, PHARMACEUTICAL COMPOSITION, AND USE THEREOF” (Nain Biotech (Hangzhou) Co., Ltd., priority 2023, dated 2024).
pIC50: −log10 of the molar value.

Tested on: HeLa cell line
Test: not given
Details: compared to the control drug ellipticine; Tunbridge et al., 2013; cited from earlier work

SMILES | inhibitory activity against the HeLa cell line
COc1cc2c(c(N)c1OC)C(=O)/C(=C\c1cc(C)c(O)c(C)c1)C2 [indanocine] | superior inhibitory activity

Tested on: HeLa cells
Test: Cell-based pharmacodynamic assay (CellTiter-Glo proliferation inhibition), HeLa
Details: human cervical cancer HeLa cells; 72 hours incubation; CellTiter-Glo luminescence; read-out: IC50 against HeLa cells
Summary of the method: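 Cells seeded overnight in line-specific media with FBS, then dosed from DMSO stocks (20 mM stock) for 72 h at 37 °C, 5% CO2. Viability by CellTiter-Glo luminescence; inhibition normalised to DMSO and blank wells, IC50 from four-parameter fit.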

pIC50 | SMILES
≥ 6.70 | CCCCCC(=O)n1c2c(c3c(C(=O)OCC)cccc31)CCCC2=O [Compound C05]
≥ 6.70 | CCOC(=O)c1cccc2c1c1c(n2C(=O)C2COC2)C(=O)CCC1 [Compound C38]
≥ 6.70 | C=CC(=O)n1c2c(c3c(C(=O)OCC)cccc31)CCCC2=O [Compound C03]
≥ 6.70 | CCOC(=O)c1cccc2c1c1c(n2C(=O)CN2CCN(C)CC2)C(=O)CCC1 [Compound C34]
≥ 6.70 | COc1ccc2[nH]c3c(c2n1)CCCC3=NCCO [Compound E37]
≥ 6.70 | COC(=O)c1cccc2c1c1c(n2C(C)=O)C(=O)CCC1 [Compound C01]
≥ 6.30 | Cc1ccc2[nH]c3c(c2c1)CCCC3=NC(C)C(=O)OC(C)(C)C (centres unmarked) [Compound E44]
≥ 6.70 | COc1ccc2[nH]c3c(c2n1)CCCC3=NCC(=O)OC(C)(C)C [Compound E35]
≥ 6.70 | COC(=O)c1cccc2[nH]c3c(c12)CCCC3=NCCO [Compound E30]
≥ 6.70 | Cn1cc(-c2cccc3c2c2c(n3C(=O)C3CC(F)(F)C3)C(=O)CCC2)cn1 [Compound C60]
≥ 6.70 | CCOC(=O)c1cccc2c1c1c(n2C(=O)OC2CCN(C)CC2)C(=O)CCC1 [Compound C18]
≥ 6.70 | COC(=O)c1cccc2[nH]c3c(c12)CCCC3=NCC(O)CO (racemic) [Compound E59]
≥ 6.70 | CCOC(=O)c1cccc2c1c1c(n2C(=O)[C@@H](C)OCc2ccccc2)C(=O)CCC1 [Compound C58]

Second part, the compound before the results:

SMILES | pIC50
CCOC(=O)c1cccc2[nH]c3c(c12)CCCC3=O [Compound B16] | ≥ 6.70
CCn1cc(-c2cccc3[nH]c4c(c23)CCCC4=O)cn1 [Compound B155] | ≥ 6.70
O=C1CCCc2c1[nH]c1cccc(C(=O)Oc3cccc4[nH]ncc34)c21 [Compound B166] | ≥ 6.30
O=C1CCCc2c1[nH]c1cccc(-c3ccncc3)c21 [Compound B96] | ≥ 6.70
O=C1CCCc2c1[nH]c1cccc(-c3cnn(CCO)c3)c21 [Compound B181] | ≥ 6.70
Cn1ncc(-c2cccc3[nH]c4c(c23)CCCC4=O)n1 [Compound B67] | ≥ 6.70
CS(=O)(=O)c1cccc2[nH]c3c(c12)CCCC3=O [Compound B74] | ≥ 6.70
Cc1nc(-c2cccc3[nH]c4c(c23)CCCC4=O)no1 [Compound B99] | ≥ 6.70
N#CC1(COC(=O)c2cccc3[nH]c4c(c23)CCCC4=O)CC1 [Compound B175] | ≥ 6.30
CC(C)(O)C1CN(c2cccc3[nH]c4c(c23)CCCC4=O)C1 [Compound B24] | ≥ 6.70
O=C1CCCc2c1[nH]c1cccc(N3CCn4cnnc4C3)c21 [Compound B19] | ≥ 6.70
Cc1ccc2[nH]c3c(c2c1)CCCC3=N[C@@H]1CCNC1 [Compound E04R] | ≥ 6.70
Cn1nc2ccccc2c1COC(=O)c1cccc2[nH]c3c(c12)CCCC3=O [Compound B164] | ≥ 6.70
O=C1CCCc2c1[nH]c1cccc(C(=O)OCCO)c21 [Compound B31] | ≥ 6.70
[2H]C([2H])([2H])c1ccc2[nH]c3c(c2c1)CCCC3=O [Compound B15] | ≥ 6.70

Tested on: not listed separately
Test: Cell-based pharmacodynamic assay (CellTiter-Glo proliferation inhibition), tumor cell line panel
Details: Homo sapiens; one range stated for all 22 listed ovarian, liver, lung, melanoma, pancreatic, colorectal, renal, prostate, gastric, tongue, leukemia and rhabdomyosarcoma cell lines
Description: Complete media such as RPMI 1640 (Gibco, A1049101), EMEM (ATCC, 30-2003), DMEM (Gibco, C11995500CP), McCoy's 5A (Gibco, 16600082), and F-12K (ATCC, 30-2004) were prepared by supplementing with varying concentrations of FBS (Biological Industries, 04-002-1A) and 1% Penicillin-Streptomycin (Gibco, 15140122) and was thoroughly mixed. Tumor cell lines including HeLa (ATCC, CCL-2; EMEM + 10% FBS), TOV-21G (Cobioer, CBP60292; 1:1 mixture of MCDB 105 and Medium 199 + 15% FBS), OVCAR-3 (ATCC, HTB-161; RPMI 1640 + 20% FBS + 0.01 mg/ml bovine insulin), SK-OV-3 (ATCC, HTB-77; McCoy's 5A + 10% FBS), A2780 (Cobioer, CBP60283; RPMI 1640 + 10% FBS), OC316 (Cobioer, CBP60620; RPMI 1640 + 10% FBS), HuH-7 (Cobioer, CBP60202; DMEM + 10% FBS), SNU-398 (ATCC, CRL-2233; RPMI 1640 + 10% FBS), NCI-H2286 (ATCC, CRL-5938; RPMI 1640 + 5% FBS), NCI-H82 (ATCC, HTB-175; RPMI 1640 + 10% FBS), A549 (ATCC, CCL-185; F-12K + 10% FBS), SK-MEL-3 (ATCC, HTB-69; McCoy's 5A + 15% FBS), PSN-1 (Cobioer, CBP61215; RPMI 1640 + 10% FBS), LoVo (ATCC, CCL-229; F-12K + 10% FBS), DLD-1 (ATCC, CCL-221; RPMI 1640 + 10% FBS), HCT-15 (ATCC, CCL-225; RPMI 1640 + 10% FBS), A498 (ATCC, HTB-44; EMEM + 10% FBS), LNCaP (ATCC, CRL-1740; RPMI 1640 + 10% FBS), SNU-1 (ATCC, CRL-5971; RPMI 1640 + 10% FBS), SCC-9 (Cobioer, CBP60428; DMEM/F12 (1:1) + 10% FBS + 0.5 mM sodium pyruvate + 400 ng/ml hydrocortisone), SU-DHL-5 (ATCC, CRL-2958; RPMI 1640 + 10% FBS), Toledo (ATCC, CRL-2631; RPMI 1640 + 10% FBS), and SJCRH30 (ATCC, CRL-2061; RPMI 1640 + 10% FBS) were thawed. Cells were passaged approximately twice, and those in good growth condition (typically passages 4-6) were selected for experiments. The medium was aspirated, and the cells were washed once with 0.25% trypsin (Invitrogen, 25200-072). The waste liquid was discarded, and 3 mL of fresh trypsin was added to the culture flask for digestion. […] The plates were placed in an Enspire reader (luminescence measurement time: 0.5 s) to record luminescence results. […]

pIC50 | SMILES
5.00 to 6.70 | CCOC(=O)c1cccc2[nH]c3c(c12)CCCC3=O [Compound B16]
5.00 to 6.70 | CCCCCC(=O)n1c2c(c3c(C(=O)OCC)cccc31)CCCC2=O [Compound C05]
5.00 to 6.70 | Cn1ncc(-c2cccc3[nH]c4c(c23)CCCC4=O)n1 [Compound B67]
